Test results reported in patent publication US20200016058A1, “HORNY LAYER FUNCTION IMPROVING AGENT” (Ajinomoto Co., Inc., priority 2017, published 2020).
Where a SMILES comes first, the peptide text is derived from it.

How the values were obtained:
keratin 10 = test: Gene expression test using normal human epidermal keratinocytes (RT-PCR), keratin 10; format: cell-based; settings: Keratinocyte, 48 hours, relative value to control, read-out: K10 (keratin 10) gene expression amount
Protocol: (§1) Normal human epidermal keratinocytes (Kurabo Industries Ltd.) were cultured with HuMedia KG2 (Kurabo Industries Ltd.) at 37° C. and 5% CO2 under saturated vapor. Cells that have become confluent were seeded in a 6-well plate with a seeding density of 3.0×10^5 (cells/well).
(§2) For each evaluation sample, each D-amino acid adjusted in the culture medium so as to be 100 μM or 500 μM was used. On the next day of seeding, each evaluation sample was adjusted to be 100 μM or 500 μM, and each well culture medium was exchanged. Culturing was performed for 48 hours, RNA was extracted from the cells using RN easy mini kit (Qiagen), which was synthesized into cDNA using High-Capacity cDNA Reverse Transcription Kit with RNase Inhibitor (Thermo Fisher). With this cDNA as a template, a sample added group and a control group were compared with each other by the RT-PCR method (7500 fast system (Thermo Fisher)) to evaluate gene expression amounts of filaggrin, involucrin, loricrin, keratin 10, and transglutaminase 1. In Table 4, FLG, IVL, K10, LOR, and TGM indicate filaggrin, involucrin, keratin 10, loricrin, and transglutaminase 1, respectively.

involucrin = test: Gene expression test using normal human epidermal keratinocytes (RT-PCR), involucrin; format: cell-based; settings: Keratinocyte, 48 hours, relative value to control, read-out: IVL (involucrin) gene expression amount
Protocol: as §1, §2

loricrin = test: Gene expression test using normal human epidermal keratinocytes (RT-PCR), loricrin; format: cell-based; settings: 48 hours, relative value to control
Protocol: as §1, §2

[1] = orally administered; cited filing; cited from earlier work
filaggrin = test: Gene expression test using normal human epidermal keratinocytes (RT-PCR), filaggrin; format: cell-based; settings: Keratinocyte, 48 hours, relative value to control, read-out: FLG (filaggrin) gene expression amount
Protocol: as §1, §2

[2] = system: filaggrin, involucrin, loricrin, keratin 10, and transglutaminase 1; test: Gene expression test using normal human epidermal keratinocytes, text summary over the target genes; format: cell-based; settings: 100 μM or 500 μM, summary of Table 4; for expression amounts of the respective target genes: all five target genes
Protocol: as §1, §2

transglutaminase 1 = test: Gene expression test using normal human epidermal keratinocytes (RT-PCR), transglutaminase 1; format: cell-based; settings: 48 hours, relative value to control
Protocol: as §1, §2

[3] = JP 2012-006870; determined only by the subjectivity of subjects; cited from earlier work
laminin 332 = settings: reported in WO 2011/040082; cited from earlier work
[4] = system: filaggrin, involucrin, transglutaminase 1, keratin 10, and loricrin; settings: cited from earlier work

For `N[C@H](CCC(=O)O)C(=O)O` [D-Glu, D-glutamic acid], the fold induction at 500 µM (keratin 10) was 1.25, the fold induction at 500 µM (involucrin) was 1.34 and the “LOR (loricrin) gene expression amount” value (loricrin; 500 μM) was 2.07. For the same compound, the TEWL value [1] was “reduces”, the fold induction at 500 µM (filaggrin) was 1.69 and the “expression amounts of the respective target genes” value [2] was “increases”. The “TGM (transglutaminase 1) gene expression amount” value (from here on “TGM”) (transglutaminase 1; 500 μM) was 1.13.

In the case of `NCCCC[C@H](N)C(=O)O` [L-lysine, reference compound], the moisture retaining effect [3] is given as “expressed”.

For `N[C@H](Cc1ccccc1)C(=O)O` [D-Phe, D-phenylalanine], the fold induction at 500 µM (keratin 10) was 1.32, the fold induction at 500 µM (involucrin) was 1.32 and the “LOR (loricrin) gene expression amount” value (loricrin; 500 μM) was 1.78. The fold induction at 500 µM (filaggrin) was 1.52, the “expression amounts of the respective target genes” value [2] was “increases” and the “TGM” value (transglutaminase 1; 500 μM) was 1.26.

For `O=C(O)[C@H]1C[C@H](O)CN1` [D-hydroxyproline, reference compound], the “laminin 332 production promotion effect” value (laminin 332) is given as “promote the production of laminin 332”.

`CC[C@H](C)[C@@H](N)C(=O)O` [D-allo-Ile, D-allo-isoleucine] showed a fold induction at 100 µM (keratin 10) of 1.31, a fold induction at 500 µM (keratin 10) of 1.41 and a fold induction at 100 µM (involucrin) of 1.18. The fold induction at 500 µM (involucrin) was 1.13, the “LOR (loricrin) gene expression amount” value (loricrin; 100 μM) was 1.31 and the fold induction at 100 µM (filaggrin) was 1.3. For the same compound, the fold induction at 500 µM (filaggrin) was 1.21, the “expression amounts of the respective target genes” value [2] was “increases” and the “TGM” value (transglutaminase 1; 500 μM) was 1.27.

In the case of `N[C@H](CC(=O)O)C(=O)O` [D-Asp, D-aspartic acid], the fold induction at 100 µM (keratin 10) is reported as 2.43, the fold induction at 500 µM (keratin 10) is reported as 2.1 and the fold induction at 100 µM (involucrin) is reported as 1.49. The fold induction at 500 µM (involucrin) was 1.42, the “LOR (loricrin) gene expression amount” value (loricrin; 100 μM) was 2.34 and the “LOR (loricrin) gene expression amount” value (loricrin; 500 μM) was 2.10. For the same compound, the “laminin 332 production promotion effect” value (laminin 332) was “not expressed”, the fold induction at 100 µM (filaggrin) was 1.35 and the fold induction at 500 µM (filaggrin) was 1.45. For the same compound, the “expression amounts of the respective target genes” value [2] was “increases”, the “TGM” value (transglutaminase 1; 100 μM) was 1.13 and the “TGM” value (transglutaminase 1; 500 μM) was 1.20.

For `NCC(=O)N1CCC[C@H]1C(=O)O` [glycylproline] (H-Gly-Pro-OH), the “expression promotion action of moisture retention-related proteins such as filaggrin” value ([4]; applicant's assessment of the prior art) is given as “weak” and the “expression of filaggrin, involucrin, transglutaminase 1, keratin 10, and loricrin” value ([4]; reported in WO 2014/175001 and JP 2012-232920) is given as “promoted”.

`N[C@H](Cc1c[nH]c2ccccc12)C(=O)O` [D-Trp, D-tryptophan] showed a fold induction at 100 µM (keratin 10) of 2.44, a fold induction at 500 µM (keratin 10) of 3.43 and a fold induction at 100 µM (involucrin) of 2.05. For the same compound, the fold induction at 500 µM (involucrin) was 2.43, the “LOR (loricrin) gene expression amount” value (loricrin; 100 μM) was 1.71 and the “LOR (loricrin) gene expression amount” value (loricrin; 500 μM) was 3.45. The fold induction at 100 µM (filaggrin) was 1.77, the fold induction at 500 µM (filaggrin) was 3.3 and the “expression amounts of the respective target genes” value [2] was “increases”. For the same compound, the “TGM” value (transglutaminase 1; 100 μM) was 1.42 and the “TGM” value (transglutaminase 1; 500 μM) was 1.50.

`NCCCC[C@@H](N)C(=O)O` [D-Lys, D-lysine] showed a fold induction at 100 µM (keratin 10) of 1.35, a fold induction at 500 µM (keratin 10) of 2.16 and a fold induction at 100 µM (involucrin) of 1.27. For the same compound, the fold induction at 500 µM (involucrin) was 1.72, the “LOR (loricrin) gene expression amount” value (loricrin; 100 μM) was 2.02 and the “LOR (loricrin) gene expression amount” value (loricrin; 500 μM) was 1.39. For the same compound, the moisture retaining effect [3] was “expressed”, the fold induction at 100 µM (filaggrin) was 1.48 and the fold induction at 500 µM (filaggrin) was 1.29. For the same compound, the “expression amounts of the respective target genes” value [2] was “increases” and the “TGM” value (transglutaminase 1; 100 μM) was 1.12.

With `C[C@@H](N)C(=O)O` [D-Ala, D-alanine] the fold induction at 100 µM (keratin 10) was 1.47, the fold induction at 500 µM (keratin 10) was 1.21 and the fold induction at 100 µM (involucrin) was 1.28. For the same compound, the fold induction at 500 µM (involucrin) was 1.15, the “laminin 332 production promotion effect” value (laminin 332) was “promote the production of laminin 332” and the fold induction at 100 µM (filaggrin) was 1.23. The fold induction at 500 µM (filaggrin) was 1.18, the “expression amounts of the respective target genes of filaggrin, involucrin, keratin 10, and transglutaminase 1” value [2] was “increases” and the “TGM” value (transglutaminase 1; 100 μM) was 1.20.

In the case of `NC(=O)C[C@@H](N)C(=O)O` [D-Asn, D-asparagine], the fold induction at 500 µM (keratin 10) is reported as 1.21, the fold induction at 500 µM (involucrin) is reported as 1.34 and the “LOR (loricrin) gene expression amount” value (loricrin; 500 μM) is reported as 1.80. For the same compound, the fold induction at 500 µM (filaggrin) was 1.55 and the “expression amounts of the respective target genes of filaggrin, involucrin, keratin 10, and loricrin” value [2] was “increases”.
